Experimental data reported in patent publication US20070286822A1, “Compounds for the Treatment of Periodontal Disease” (ANACOR PHARMACEUTICALS INC., priority 2006, published 2007).

Tests used:
IL-10 = assay: TH2 cytokines: PBMC, PHA, IL-10; type: cell-based; settings: 24 h, read-out: IL-10 (anti-inflammatory data, TH2 cytokine)
Experimental: (§1) Anti-inflammatory data for 3-hydroxypyridine-2-carbonyloxy-bis(3-chloro-4-methylphenyl)-borane
(§2) TH2 cytokines: PBMC, PHA@ […], 24 h

IL-13 = assay: TH2 cytokines: PBMC, PHA, IL-13; type: cell-based; settings: 24 h, read-out: IL-13 (anti-inflammatory data, TH2 cytokine)
Experimental: as §1, §2

IL-2 = assay: TH1 cytokines: PBMC, PHA, IL-2; type: cell-based; settings: 24 h, read-out: IL-2 (anti-inflammatory data, TH1 cytokine)
Experimental: as §1
(§3) TH1 cytokines: PBMC, PHA@ […], 24 h

IL-4 = assay: TH2 cytokines: PBMC, PHA, IL-4; type: cell-based; settings: 24 h, read-out: IL-4 (anti-inflammatory data, TH2 cytokine)
Experimental: as §1, §2

IL-8 = assay: Pro-inflammatory cytokines: THP-1 cells, LPS, IL-8; type: cell-based; settings: Homo sapiens, 24 hr, read-out: IL-8 (anti-inflammatory data, pro-inflammatory cytokine)
Experimental: as §1
(§4) Pro-inflammatory cytokines: THP-1 cells, LPS@ […], 24 hr

IL-1β = assay: Pro-inflammatory cytokines: THP-1 cells, LPS, IL-1β; type: cell-based; settings: Homo sapiens, 24 hr, read-out: IL-1β (anti-inflammatory data, pro-inflammatory cytokine)
Experimental: as §1, §4

IL-6 = assay: Pro-inflammatory cytokines: THP-1 cells, LPS, IL-6; type: cell-based; settings: Homo sapiens, 24 hr, read-out: IL-6 (anti-inflammatory data, pro-inflammatory cytokine)
Experimental: as §1, §4

IL-5 = assay: TH2 cytokines: PBMC, PHA, IL-5; type: cell-based; settings: 24 h, read-out: IL-5 (anti-inflammatory data, TH2 cytokine)
Experimental: as §1, §2

IL-3 = assay: Regulatory cytokine: PBMC, PHA, IL-3; type: cell-based; settings: 24 h, read-out: IL-3 (anti-inflammatory data, regulatory cytokine)
Experimental: as §1
Regulatory cytokine: PBMC, PHA@ […], 24 h

IFN-g = assay: TH1 cytokines: PBMC, PHA, IFN-g; type: cell-based; settings: 24 h, read-out: IFN-g (anti-inflammatory data, TH1 cytokine)
Experimental: as §1, §3

TNF-α = assay: Pro-inflammatory cytokines: THP-1 cells, LPS, TNF-α; type: cell-based; settings: Homo sapiens, 24 hr, read-out: TNF-α (anti-inflammatory data, pro-inflammatory cytokine)
Experimental: as §1, §4

Compound | melting point [°C] | other results
Cc1ccc(B(OC(=O)c2ncccc2O)c2ccc(C)c(Cl)c2)cc1Cl [3-hydroxypyridine-2-carbonyloxy-bis(3-chloro-4-methylphenyl)-borane] |  | IC50 (IL-10): 14.5 µM; IC50 (IL-13): > 10 µM; IC50 (IL-2): > 25 µM; IC50 (IL-4): > 25 µM; IC50 (IL-8): 9.6 µM; IC50 (IL-1β): 1 µM; IC50 (IL-6): 5.3 µM; IC50 (IL-5): 9.3 µM; IC50 (IL-3): > 10 µM; IC50 (IFN-g): > 25 µM; IC50 (TNF-α): 2.7 µM
O=S(=O)(Nc1ccc2c(c1)B(O)OC2)c1ccccc1 [C62, N-(1-hydroxy-1,3-dihydrobenzo[c][1,2]oxaborol-6-yl)benzenesulfonamide] | 175 to 184 | 
CCCCC(=O)c1cccc(COc2ccc3c(c2)COB3O)c1 [C45, 1-(3-((1-hydroxy-1,3-dihydrobenzo[c][1,2]oxaborol-5-yloxy)methyl)phenyl)pentan-1-one] | 96 to 98 | 
Nc1cc2c(cc1F)COB2O [C70, 6-amino-5-fluorobenzo[c][1,2]oxaborol-1(3H)-ol] | 142 to 145 | 
N#Cc1ccc(Oc2cccc3c2B(O)OC3)cc1 [C74, 4-(1-hydroxy-1,3-dihydrobenzo[c][1,2]oxaborol-7-yloxy)benzonitrile] | 148 to 153 | 
OB1OCc2ccc(NCc3ccccc3)cc21 [C77, 6-(benzylamino)benzo[c][1,2]oxaborol-1(3H)-ol] | 126 to 133 | 
Fc1ccc2c(c1)COB2c1cccc(Cl)c1 [9f, 1-(3-Chlorophenyl)-1,3-dihydro-5-fluoro-2,1-benzoxaborole] | 112 to 114 | 
OB1OCc2cc(F)c(NCc3ccccc3)cc21 [C71, 6-(benzylamino)-5-fluorobenzo[c][1,2]oxaborol-1(3H)-ol] | 159 to 164 | 
OB1OCc2ccc(F)cc21 [C13, 6-fluorobenzo[c][1,2]oxaborol-1(3H)-ol] | 110 to 117.5 | 
OCc1cc2c(cc1Br)COB2O [C59] | > 257 | 
O=C(O)COc1ccc2c(c1)COB2O [C42, 2-(1-hydroxy-1,3-dihydrobenzo[c][1,2]oxaborol-5-yloxy)acetic acid] | 163 to 166 | 
OB1OCc2ccc(Oc3ccc(OC(F)(F)F)cc3)cc21 [C29, 6-(4-(trifluoromethoxy)phenoxy)benzo[c][1,2]oxaborol-1(3H)-ol] | 97 to 101 | 
OB1OCc2ccc(Oc3ccc(Cl)cc3)cc21 [C20, 6-(4-chlorophenoxy)benzo[c][1,2]oxaborol-1(3H)-ol] | 119 to 130 | 
N#CCCSc1cn(-c2ccc3c(c2)B(O)OC3)c2ccc(Cl)cc12 [C76, 3-(5-chloro-1-(1-hydroxy-1,3-dihydrobenzo[c][1,2]oxaborol-6-yl)-1H-indol-3-ylthio)propanenitrile] | > 225 | 
CN(C)c1ccc2c(c1)B(O)OC2 [C51, 6-(dimethylamino)benzo[c][1,2]oxaborol-1(3H)-ol] | 120 to 123 | 
Cc1ccc(B2OCc3cc(F)ccc32)cc1 [9j, 1,3-Dihydro-5-fluoro-1-(4-methylphenyl)-2,1-benzoxaborole] | 48 to 49 | 
OB1OCc2cc3c(cc21)COB3O [C60, 3,7-dihydro-1,5-dihydroxy-1H,3H-Benzo[1,2-c:4,5-c′]bis[1,2]oxaborole] | > 250 | 
OB1OCc2ccc(Oc3ccccc3)cc21 [C21, 6-phenoxybenzo[c][1,2]oxaborol-1(3H)-ol] | 95 to 99 | 
OB1OCc2ccc(-n3ccc4ccccc43)cc21 [C55, 6-(1H-indol-1-yl)benzo[c][1,2]oxaborol-1(3H)-ol] | 135 to 140 | 
OCc1cccc2c1B(O)OC2 [C64, 7-(hydroxymethyl)benzo[c][1,2]oxaborol-1(3H)-ol] | 241 to 250 | 
CC(=O)Nc1ccc2c(c1)B(O)OC2 [C63, N-(1-hydroxy-1,3-dihydrobenzo[c][1,2]oxaborol-6-yl)acetamide] | 176 to 185 | 

Now from value to compound, other results behind:

melting point [°C] | Compound | other results
120 to 124 | OB1OCc2cccc(F)c21 [C86, 7-fluorobenzo[c][1,2]oxaborol-1(3H)-ol] | 
145 to 151 | OB1OCc2ccc(-n3cc(Sc4ccccc4)c4cc(Cl)ccc43)cc21 [C80, 6-(5-chloro-3-(phenylthio)-1H-indol-1-yl)benzo[c][1,2]oxaborol-1(3H)-ol] | 
115 to 123 | OB1OCc2ccc(N(Cc3ccccc3)Cc3ccccc3)cc21 [C78, 6-(dibenzylamino)benzo[c][1,2]oxaborol-1(3H)-ol] | 
79 to 88 | [O-][S+](c1ccc(C(F)(F)F)cc1)c1ccc2c(c1)B(O)OC2 (stereo not shown) [C93, 6-(4-(trifluoromethyl)phenylsulfinyl)benzo[c][1,2]oxaborol-1(3H)-ol] | 
111 to 113 | OB1OCc2ccc(Sc3ccc(C(F)(F)F)cc3)cc21 [C92, 6-(4-(trifluoromethyl)phenylthio)benzo[c][1,2]oxaborol-1(3H)-ol] | 
98 to 105 | OB1OCc2ccc(Oc3ccc(C(F)(F)F)cc3)cc21 [C87, 6-(4-(trifluoromethyl)phenoxy)benzo[c][1,2]oxaborol-1(3H)-ol] | 
157 to 161 | OB1OCc2ccc(Sc3ccc(Cl)cc3)cc21 [C88, 6-(4-chlorophenylthio)benzo[c][1,2]oxaborol-1(3H)-ol] | 
33 to 35 | Fc1ccc2c(c1)COB2c1ccsc1 [compound 13, 1,3-Dihydro-5-fluoro-1-(thiophen-3-yl)-2,1-benzoxaborole] | 
142 to 152 | O=S(=O)(c1ccccc1)N(c1ccc2c(c1)COB2O)S(=O)(=O)c1ccccc1 [C91, N-(1-hydroxy-1,3-dihydrobenzo[c][1,2]oxaborol-5-yl)-N-(phenylsulfonyl)benzenesulfonamide] | 
